What was measured:
[1] = molecular target: T1, human cathepsin K (Homo sapiens, UniProt P43235); conditions: in vitro; cited from earlier work
T1 sequence (P43235 115-329): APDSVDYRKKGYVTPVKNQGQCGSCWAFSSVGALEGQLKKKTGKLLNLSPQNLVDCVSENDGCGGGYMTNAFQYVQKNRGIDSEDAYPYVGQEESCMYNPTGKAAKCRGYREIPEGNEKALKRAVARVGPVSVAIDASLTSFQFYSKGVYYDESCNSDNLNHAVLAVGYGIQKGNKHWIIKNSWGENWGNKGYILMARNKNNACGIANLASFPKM

[2] = whole body biodistribution of radioactivity after intravenous injection in rats; format: in vivo, rat; conditions: female rats, i.v.; for Tissue biodistribution, Bone, avg: femur in its entirety
Method: The whole body biodistribution of radioactivity after intravenous injection of [^11C]1 was determined in rats. Animals (N =6, female CD rats) were lightly anesthetized (isoflurane) and injected via the tail vein with 1.85-4.44 MBq of radioligand formulated in 5% ethanol/saline. At selected times (5 and 40 min), groups (N=3) of animals were anesthetized, euthanized (decapitation) and samples of tissues removed. Tissue samples were weighed, counted for carbon-11, and the data calculated as % injected dose/g.

[3] = tested on: osteoclasts in bone; assay: microPET imaging of radioligand uptake into bone in normal rats, with blocking studies; format: in vivo; conditions: rat
From the text: Studies were done using imaging with Concorde Microsystems R4 and P4 PET scanners. Rats were anesthetized with isoflurane and maintained on 1% isoflurane throughout the imaging period. The animals were placed on their dorsal side in the scanner, and body temperature was maintained using a heating pad. A catheter was inserted into the tail vein for administration of radioactive solutions. Following a measured transmission scan, solutions of radioligands ([^11C]1 or ([^11C]2, 37-185 MBq in 0.5-1 mL volumes) were injected via the catheter, followed by a 1 ml flush of saline. For the blocking study, a 2 mg/kg dose of unlabeled compound 2 was administered 10 minutes prior to the injection of the radiolabeled [^11C]2. Emission data was collected for 60 minutes (12×5 min fames). The emission data was corrected for decay, dead time and random coincidences, then reconstructed using iterative ordered subset expectation maximization-maximum a posteriori (OSEM-MAP) yielding a reconstructed image resolution of approximately 1.4 mm. Volumetric regions of interest (ROIs) were defined using hand-drawn circular ROIs placed on the summed images, and the time-activity curves determined for each ROI (ASI Pro VM software: Siemens Medical Systems, Malvern, Pa.).

COc1ccc(CCNC(=O)c2cnc(C#N)nc2NC2CCCCC2)cc1 [[^11C]1, 2-cyano-4-(cyclohexylamino)-N-(4-[^11C]methoxyphenethyl)-pyrimidine-5-carboxamide]
IC50 [1]: 0.0222 nM

[11CH3]Oc1ccc(CCNC(=O)c2cnc(C#N)nc2NC2CCCCC2)cc1 [[^11C]1, 2-cyano-4-(cyclohexylamino)-N-(4-[^11C]methoxyphenethyl)-pyrimidine-5-carboxamide]
Tissue biodistribution, Adrenal, avg ([2]; 5 min): 3.57 % injected dose/g
Tissue biodistribution, Blood, avg ([2]; 5 min): 0.24 % injected dose/g
Tissue biodistribution, Brain, avg ([2]; 5 min): 0.43 % injected dose/g
Tissue biodistribution, Heart, avg ([2]; 5 min): 1.23 % injected dose/g
Tissue biodistribution, Kidney, avg ([2]; 5 min): 2.03 % injected dose/g
Tissue biodistribution, Liver, avg ([2]; 5 min): 3.02 % injected dose/g
Tissue biodistribution, Lung, avg ([2]; 5 min): 0.68 % injected dose/g
Tissue biodistribution, Muscle, avg ([2]; 5 min): 0.11 % injected dose/g
Tissue biodistribution, Pancreas, avg ([2]; 5 min): 1.68 % injected dose/g
Tissue biodistribution, Spleen, avg ([2]; 5 min): 1.03 % injected dose/g
Tissue biodistribution, Bone, avg ([2]; 5 min): 0.26 % injected dose/g
Tissue biodistribution, Adrenal, avg ([2]; 40 min): 0.51 % injected dose/g
Tissue biodistribution, Blood, avg ([2]; 40 min): 0.11 % injected dose/g
Tissue biodistribution, Brain, avg ([2]; 40 min): 0.11 % injected dose/g
Tissue biodistribution, Heart, avg ([2]; 40 min): 0.19 % injected dose/g
Tissue biodistribution, Kidney, avg ([2]; 40 min): 0.41 % injected dose/g
Tissue biodistribution, Liver, avg ([2]; 40 min): 0.68 % injected dose/g
Tissue biodistribution, Lung, avg ([2]; 40 min): 0.16 % injected dose/g
Tissue biodistribution, Muscle, avg ([2]; 40 min): 0.11 % injected dose/g
Tissue biodistribution, Pancreas, avg ([2]; 40 min): 0.56 % injected dose/g
Tissue biodistribution, Spleen, avg ([2]; 40 min): 0.22 % injected dose/g
Tissue biodistribution, Bone, avg ([2]; 40 min): 0.14 % injected dose/g
uptake and retention into target bone regions with low specific activity dose ([3]; 10.8 GBq/μmol, co-injection of 14 micrograms/kg of unlabeled 1): nearly full block
uptake and retention after pretreatment with unlabeled CCX ([3]; microPET): reduced
uptake in the growth plates (proximal humerus, distal ulnar, carpal, distal femur, proximal tibia, caudal vertebrae) ([3]; microPET): high uptake

CC(C)(C)CNc1nc(C#N)ncc1C(=O)NCCc1ccc(O[11CH3])cc1 [[^11C]2, 2-cyano-N-(4-[^11C]methoxyphenethyl)-4-(neopentylamino)pyrimidine-5-carboxamide]
bone uptake of radioactivity after blocking dose of unlabeled ligand 2 ([3]; 2 mg/kg unlabeled 2, ten minutes prior to injection): reduction of bone uptake of radioactivity to essentially levels equivalent to background in non-target tissues

COc1ccc(CCNC(=O)c2cnc(C#N)nc2NCC(C)(C)C)cc1 [[^11C]2, 2-cyano-N-(4-[^11C]methoxyphenethyl)-4-(neopentylamino)pyrimidine-5-carboxamide]
IC50 [1]: 0.003 nM

— US20140336503A1, “RA[…] […] RELATED METHODS THEREOF” (The Regents of the University of Michigan, priority 2013, published 2014)
